Assay results: US20230248814A1, “COMPOSITIONS AND METHODS FOR TREATING MERKEL CELL CARCINOMA (MCC) USING HLA CLASS I SPECIFIC EPITOPES” (The Broad Institute, Inc., priority 2020, published 2023)

Key:
Assay type in all cases: cell-based, human
[1] = test system: MCC lines (MCC-301, -277, -290, -320); experiment: USP7 inhibitor experiments: flow cytometry for surface HLA-I in MCC lines
[2] = test system: MKL-1 cells; experiment: USP7 inhibitor flow cytometry for surface HLA-I in MKL-1 p53-WT control and p53-KO lines; conditions: MKL-1 TP53-KO and TP53-WT lines; 100 nM
Method: For MKL-1 USP7 inhibitor experiments, p53-WT control lines (WT, scrambled, AAVS1) and three p53-KO lines were treated with USP7 inhibitors and assessed by flow cytometry for surface HLA I as described above for MCC-301.

[3] = test system: MKL-1 cells; experiment: Cell cycle analysis (EdU/DAPI flow cytometry) of MKL-1 control or p53 KO cells; conditions: MKL-1 TP53-WT and TP53-KO; 100 nM; three days
Method: Cell cycle analysis. 1 million MKL-1 control or p53 KO cells were plated and treated with DMSO, XL177A (100 nM) or XL177B (100 nM) for three days. During the last hour of the three- day treatment, the cells were pulsed with 10 µM EdU nucleotide. The cells were collected by centrifugation, treated with Accutase™ (Stem Cell Technologies) to break apart clumps, washed with PBS and fixed using 4% Formaldehyde solution in PBS at Room temperature for 15 mins. Cells were washed with 1% BSA in PBS and resuspended in 70% ice cold ethanol and incubated at -20° C. overnight for additional fixing and permeabilization. The cells were stored in 70% ethanol at -20° C. until the day the data was acquired. On the day of data acquisition, the cells were collected by centrifugation and washed twice with PBS. The incorporated EdU in the cells were labeled with a CLICK reaction cocktail (1 mM CuSO4, 100 µM THPTA, 100 mM sodium ascorbate, and 2.2 µM Alexa 647 azide in PBS) at room temperature with rocking for 30 minutes. The samples were then washed with 1% BSA in PBS once followed by two washes with PBS and incubated with a 1 µg/ml DAPI, 100 ng/ml RNase A solution for one hour at Room temperature to stain the DNA. The samples were then passed through strainer tubes and analyzed using a BD Fortessa analyzer. The flow cytometry data was analyzed using the FlowJo Software. […]

[4] = test system: MCC-301 cells; experiment: HLA-I-bound peptidome (TMT LC-MS/MS) of USP7 inhibitor treated MCC-301 cells
Method: Immunopeptidomes of USP7 inhibitor treated cell lines were eluted as described above, followed by labeling with TMT6 reagent (Thermo Fisher; 126-USP7iA, 127-WT, 128 USP7iA, 129 WT, 130-USP7iB, 131 USP7iB) and then pooled for subsequent fractionation using basic reversed phase fractionation with increasing concentrations of acetonitrile (10%, 15% and 50%) in 5 mM ammonium formate (pH 10) and analysis on an Orbitrap Exploris 480 with FAIMSpro. Data acquisition parameters were as above with NCE set to 34 and 2 second dynamic exclusion.
Mass spectra were interpreted using Spectrum Mill software package v7.1 pre-Release (Broad Institute, Cambridge, MA). […] Merging of similar spectra with the same precursor m/z acquired in the same chromatographic peak was disabled. MS/MS spectra were searched against a protein sequence database that contained 90,904 entries, including all UCSC Genome Browser genes with hg19 annotation of the genome and its protein coding transcripts (52,788 entries), common human virus sequences (30,181 entries), recurrently mutated proteins observed in tumors from 26 tissues (4,595 entries), 264 common laboratory contaminants as well as protein sequences containing somatic mutations detected in MCC cell lines (3,076 entries). MS/MS search parameters included: no-enzyme specificity; ESI-QEXACTIVE-HCD-HLA-v3 instrument scoring; fixed modification: […]; variable modifications: oxidation of methionine, carbamidomethylation of cysteine and pyroglutamic acid at peptide N-terminal glutamine; precursor mass tolerance of ±10 ppm; product mass tolerance of ±10 ppm, and a minimum matched peak intensity of 30%. Peptide spectrum matches (PSMs) for individual spectra were automatically designated as confidently assigned using the Spectrum Mill auto-validation module to apply target-decoy based FDR estimation at the PSM level of <1% FDR. Peptide auto-validation was done separately for each sample with an auto thresholds strategy to optimize score and delta Rank1 - Rank2 score thresholds separately for each precursor charge state (1 through 4) across all LC-MS/MS runs per sample. […] Peptide and PSM exports were filtered for contaminants including potential carry over tryptic peptides and peptides identified in a blank bead sample. For TMT-labeled samples, peptides derived from keratin proteins were removed and TMT intensity values were normalized to the global median. P-values were calculated using in house software based on the limma package in R.

[5] = 100 nM, 3 days, two MCPyV+ lines (MCC-301, -277)

CN1CCN(CCC(=O)Nc2ccc3c(=O)n(CC4(O)CCN(C(=O)[C@@H](CCCNC(=O)c5ccc6c(Cl)c7c(nc6c5)CCCC7)Cc5ccccc5)CC4)cnc3c2)CC1 [XL177A]
increase in expression of surface HLA-I relative to DMSO (mean) [1, 5]: 2.0 fold | increase in expression of surface HLA-I relative to DMSO (range) [1, 5]: 1.78 - 2.27 fold | increase in MFI (HLA-ABC) by flow cytometry ([1]; MCC-301, 100 nM, 4 days): greater than twofold increase | HLA-I levels ([1]; MCPyV- line MCC-290, 3 days): more modest increase in HLA-I levels | HLA-I levels ([1]; MCPyV- line MCC-320, 3 days): but not MCC-320 | surface HLA-I relative to XL177B and DMSO [2]: increased surface HLA-I | cell cycle phase distribution [3]: slight cell cycle shifts from S to G1 phase | abundances of HLA-I displayed peptides compared to XL177B and untreated cells [4]: higher abundances of displayed peptides | frequency of peptides displayed on each HLA-I gene (HLA-A, -B, -C) [4]: did not affect | peptides more abundant than in untreated cells, out of 282 significantly differing (P < 0.05) [4]: 270 peptides | share of the 282 significantly differing peptides more abundant than in untreated cells [4]: 95.7%
